Assays:
Assay type in all cases: cell-based
[1] = tested on: HUV-EC-C cells (human umbilical vein endothelial cells); assay: HUV-EC-C Assay, VEGF-stimulated [3H] thymidine incorporation; conditions: Mitogenesis in Endothelial Cells
[2] = tested on: HUV-EC-C cells (human umbilical vein endothelial cells); assay: HUV-EC-C Assay, a-FGF (ECGF)-stimulated [3H] thymidine incorporation; conditions: Mitogenesis in Endothelial Cells
Description: The following protocol may also be used to measure the composition's activity:
1. […] After cells have detached from the flask, add an equal volume of assay medium and transfer to a 50 ml sterile centrifuge tube (Fisher Scientific; catalogue no. 05-539-6).
2. Wash the cells with about 35 ml assay medium in the 50 ml sterile centrifuge, tube by adding the assay medium, centrifuge for 10 minutes at approximately 200× g, aspirate the supernatant, and resuspend with 35 ml D-PBS. Repeat the wash two more times with D-PBS, resuspend the cells in about 1 ml assay medium/15 cm^2 of tissue culture flask. Assay medium consists of F12K medium (Gibco BRL; catalogue no. 21127-014)+0.5% heat-inactivated fetal bovine serum. Count the cells with a Coulter Counter.RTM.v Coulter Electronics, Inc.) and add assay medium to the cells to obtain a concentration of 0.8-1.0×10^5 cells/ml.
3. Add cells to 96-well flat-bottom plates at 100 μl/well or 0.8-1.0×10^4 cells/well; incubate about 24 h at 37° C., 5% CO2.
1. Make up two-fold drug titrations in separate 96-well plates, generally 50 μM on down to 0 μM. Use the same assay medium as mentioned in day 0, step 2 above. Titrations are made by adding […] of drug at 200 μM (4× the final well concentration) to the top well of a particular plate column. Since the stock drug concentration is usually 20 mM in DMSO, the 200 μM drug concentration contains 2% DMSO. Therefore, diluent made up to 2% DMSO in assay medium (F12K+0.5% fetal bovine serum) is used as diluent for the drug titrations in order to dilute the drug but keep the DMSO concentration constant. Add this diluent to the remaining wells in the column at 60 μl/well. Take 60 μl from the 120 μl of 200 μM drug dilution in the top well of the column and mix with the 60 μl in the second well of the column. Take 60 μl from this well and mix with the 60 μl in the third well of the column, and so on until two-fold titrations are completed. When the next-to-the-last well is mixed, take 60 μl of the 120 μl in this well and discard it. Leave the last well with 60 μl of DMSO/media diluent as a non-drug-containing control. Make 9 columns of titrated drug, enough for triplicate wells each for 1) VEGF (obtained from Pepro Tech Inc., catalogue no. 100-200, 2) endothelial cell growth factor (ECGF) (also known as acidic fibroblast growth factor, or aFGF) (obtained from Boehringer Mannheim Biochemica, catalogue no. 1439 600), and assay media control. ECGF comes as a preparation with sodium heparin.
2. Transfer 50 μl/well of the drug dilutions to the 96-well assay plates containing the 0.8-1.0×10^4 cells/100 μl/well of the HUV-EC-C cells from day 0 and […] incubate ~2 h at 37° C., 5% CO2.
3. In triplicate, add 50 μl/well of 80 ng/ml VEGF, 20 ng/ml ECGF, or media control to each drug condition. As with the drugs, the growth factor concentrations are 4× the desired final concentration. Use the assay media from day 0 step 2 to make the concentrations of growth factors. Incubate approximately 24 hours at 37° C., 5% CO2. Each well will have 50 μl drug dilution, 50 μl growth factor or media, and 100 ul cells,=200 ul/well total. Thus the 4× concentrations of drugs and growth factors become 1× once everything has been added to the wells.
1. Add ^3H-thymidine (Amersham; catalogue no. TRK-686) at 1 μCi/well (10 μl/well of 100 μCi/ml solution made up in RPMI media+10% heat-inactivated fetal bovine serum) and incubate about 24 h at 37° C., 5% CO2.
Note: ^3H-thymidine is made up in RPMI media because all of the other applications for which we use the ^3H-thymidine involve experiments done in RPMI. The media difference at this step is probably not significant. RPMI was obtained from Gibco BRL, catalogue no. 11875-051.
1. Freeze plates overnight at −20° C.
1. Thaw plates and harvest with a 96-well plate harvester (Tomtec Harvester 96.RTM.) onto filter mats (Wallac; catalogue no. 1205-401); read counts on a Wallac Betaplate™ liquid scintillation counter.

FGFR = assay: FGF ligand-induced BrdU incorporation, mitogenesis in 3T3/EGFR cells

Row | Structure (SMILES) | IC50 ([1]; Homo sapiens, HUVEC) [µM] | IC50 ([2]; Homo sapiens, HUVEC) [µM] | also measured
1 | COc1cccc(C=C2C(=O)Nc3ccccc32)c1OC [SU4794, 3-(2,3-dimethoxybenzylidenyl)-2-indolinone] | 4.8 | 35.7 | –
2 | COc1ccc(Br)cc1C=C1C(=O)Nc2ccccc21 [SU4796, 3-(3-bromo-6-methoxybenzylidenyl)-2-indolinone] | – | – | IC50 [1]: 30.7 µM; IC50 [2]: 35.8 µM
3 | O=C1Nc2ccccc2C1=Cc1ccco1 [SU4798, 3-[(furan-2-yl)methylene]-2-indolinone] | 43.2 | – | –
4 | CC(=O)Nc1ccc(C=C2C(=O)Nc3ccccc32)cc1 [SU4799, 3-(4-acetamidobenzylidenyl)-2-indolinone] | 19.9 | – | –
5 | COc1ccccc1C=C1C(=O)Nc2ccccc21 [SU4949, 3-(2-Methoxybenzylidenyl)-2-indolinone] | – | – | IC50 [1]: 3.4 µM; IC50 [2]: 3.7 µM
6 | CN(C)c1ccc(C=C2C(=O)N(C)c3ccccc32)cc1 [SU4952, 3-(4-Dimethylaminobenzylidenyl)-1-methyl-2-indolinone] | 25.6 | 19.3 | –
7 | CN(C)c1ccc(C=C2C(=O)Nc3ccc(Cl)cc32)cc1 [SU4967, 5-Chloro-3-(4-dimethylaminobenzylidenyl)-2-indolinone] | 34.3 | 16.3 | IC50 (FGFR): 4.9 µM
8 | O=C1Nc2ccc(Cl)cc2C1=Cc1ccc(Br)cc1 [SU4972, 3-(4-Bromobenzylidenyl)-5-chloro-2-indolinone] | – | – | IC50 [2]: 1.4 µM
9 | CCCCN(CCCC)c1ccc(C=C2C(=O)Nc3ccccc32)cc1 [SU4979, 3-(4-Di-n-butylaminobenzylidenyl)-2-indolinone] | 4.4 | 4.9 | –
10 | O=C1Nc2ccccc2C1=Cc1ccc(N2CCOCC2)cc1 [SU4981, 3-[4-(Morpholin-4-yl)benzylidenyl]-2-indolinone] | 0.6 | – | IC50 (FGFR): 10 µM
11 | O=C1Nc2ccccc2C1=Cc1ccc(Cl)c(Cl)c1 [SU5201, 3-(3,4-Dichlorobenzylidenyl)-2-indolinone] | – | – | IC50 [1]: 2.5 µM; IC50 [2]: 2.3 µM
12 | O=C1Nc2ccccc2C1=Cc1ccc(F)cc1 [SU5205, 3-(4-Fluorobenzylidenyl)-2-indolinone] | 5.1 | 11.8 | –
13 | O=C1Nc2ccccc2C1=Cc1cccs1 [SU5208, 3-[(Thien-2-yl)methylene]-2-indolinone] | 2.9 | 130 | –
14 | O=C1Nc2ccccc2C1=Cc1ccc(-c2cc(C(F)(F)F)cc(C(F)(F)F)c2)o1 [SU5217] | – | – | IC50 [1]: 9.6 µM; IC50 [2]: 10.5 µM
15 | CN(C)c1c(C=C2C(=O)Nc3ccccc32)cc(C=C2C(=O)Nc3ccccc32)c(N(C)C)c1C#N [SU5218, 2,6-Di-(dimethylamino)-3,5-di-[(indolin-2-one-3-ylidenyl)methyl]-phenylcyanide] | 2.4 | 2.7 | –
16 | Cc1c(C=O)[nH]c(C=C2C(=O)Nc3ccccc32)c1C [SU5405, 3-[(3,4-Dimethyl-2-formylpyrrole-5-yl)methylene)-2-indolinone] | 0.9 | 0.6 | –
17 | Cc1c[nH]c(C=C2C(=O)Nc3ccccc32)c1C [SU5406, 3-[(3,4-Dimethylpyrrol-2-yl)methylene]-2-indolinone] | < 0.8 | – | –
18 | CCOC(=O)c1c(C)[nH]c(C=C2C(=O)Nc3ccccc32)c1C [SU5408, 3-[(2,4-Dimethyl-3-ethoxycarbonylpyrrol-5-yl)methylene]-2-indolinone] | < 0.8 | 22.7 | –
19 | O=C1Nc2ccccc2C1=Cc1ccc(I)o1 [SU5409] | – | – | IC50 [1]: 26 µM
20 | O=C1Nc2ccccc2C1=Cc1sccc1Br [SU5418, 3-[(3-Bromothiene-2-yl)methylene]-2-indolinone] | 13.6 | 40 | –
21 | CSc1ccc(C=C2C(=O)Nc3ccccc32)s1 [SU5419, 3-[(2-Methylmercaptothien-5-yl)methylene]-2-indolinone] | 0.7 | – | –
22 | Cc1cc(C=C2C(=O)Nc3ccccc32)oc1C [SU5421, 3-[(2,3-Dimethylfuran-5-yl)methylene]-2-indolinone] | 11.4 | – | –
23 | O=C1Nc2ccccc2C1=Cc1ccco1 [SU5429, 3-[(Furan-2-yl)methylene]-2-indolinone] | 27.6 | – | –
24 | O=C1Nc2ccccc2C1=Cc1cccn1-c1ccc(Cl)cc1 [SU5462] | – | – | IC50 [1]: 0.5 µM; IC50 [2]: 0.8 µM
25 | CCOC(=O)CCc1c(C=C2C(=O)Nc3ccccc32)[nH]c(C(=O)OCC)c1CC(=O)OCC [SU5465, 3-[(5-Ethoxycarbonyl-3-ethoxycarbonylethyl-4-ethoxylcarbonylmethylpyrrol-2-yl)methylene]-2-indolinone] | – | – | IC50 (FGFR): 25 µM
26 | Cc1cnc(C=C2C(=O)Nc3ccccc32)s1 [SU5469, 3-[(5-Methylthiazol-2-yl)methylene]-2-indolinone] | – | – | IC50 (FGFR): 15 µM
27 | O=C1Nc2ccccc2C1=Cc1c[nH]cn1 [SU5473, 3-[(Imidazol-4-yl)methylene]-2-indolinone] | – | – | IC50 (FGFR): 50 µM
28 | O=C1Nc2ccccc2C1=Cc1c(Br)cnn1Cc1ccc(Cl)cc1 [SU5475, 3-[(4-Bromo-1-(4-chlorobenzyl)pyrazol-5-yl)methylene]-2-indolinone] | – | – | IC50 (FGFR): 9 µM

Second part, led by results:

Row | IC50 ([1]; Homo sapiens, HUVEC) [µM] | Structure (SMILES) | IC50 ([2]; Homo sapiens, HUVEC) [µM] | also measured
29 | 0.16 | O=C1Nc2ccccc2C1=Cc1ccc([N+](=O)[O-])o1 [SU5432, 3-[(2-Nitrofuran-5-yl)methylene]-2-indolinone] | 0.14 | –
30 | 39.8 | O=C1Nc2ccccc2C1=Cc1ccc(Br)o1 [SU5438, 3-[(5-Bromofuran-2-yl)methylene]-2-indolinone] | 33 | –
31 | 1.2 | CCc1ccc(C=C2C(=O)Nc3ccccc32)s1 [SU5451, 3-[(2-Ethylthien-5-yl)methylene]-2-indolinone] | 30 | –
32 | 3.8 | CCOC(=O)CCc1c(C(=O)OCC)[nH]c(C=C2C(=O)Nc3ccccc32)c1CC(=O)OCC [SU5454, 3-[(5-Ethoxycarbonyl-4-ethoxycarbonylethyl-3-ethoxycarbonylmethylpyrrol-2-yl)methylene]-2-indolinone] | 3.4 | –
33 | 20 | CCc1c(C=C2C(=O)Nc3ccccc32)[nH]c(C(=O)O)c1C [SU5455, 3-[(5-Carboxy-3-ethyl-4-methylpyrrol-2-yl)methylene]-2-indolinone] | 20 | –
34 | < 0.07 | O=C1Nc2ccccc2C1=Cc1cccn1-c1cc(Cl)cc(Cl)c1 [SU5461, 3-{[1-(3,5-Dichlorophenyl)pyrrol-2-yl]methylene}-2-indolinone] | < 0.07 | –
35 | 0.14 | CCOC(=O)c1c[nH]c(C=C2C(=O)Nc3ccccc32)c1C [SU5463] | 7.9 | –
36 | 3.8 | Cn1cccc1C=C1C(=O)Nc2ccccc21 [SU5464, 3-[(1-Methylpyrrol-2-yl)methylene]-2-indolinone] | 12.9 | –
37 | 0.54 | Cc1cnc(C=C2C(=O)Nc3ccccc32)[nH]1 [SU5468, 3-[(5-Methylimidazol-2-yl)methylene]-2-indolinone] | 8.7 | –
38 | 2 | Cc1cc(C=C2C(=O)Nc3ccccc32)[nH]n1 [SU5472, 3-[(3-Methylpyrazol-5-yl)methylene]-2-indolinone] | 5 | –
39 | 0.05 | CCc1c(C)[nH]c(C=C2C(=O)Nc3ccccc32)c1C [SU5477, 3-[(4-Ethyl-3,5-dimethylpyrrol-2-yl)methylene]-2-indolinone] | 37.8 | –
